13 molecules from patent publication US8586588B2, “Aryl pyridazinone derivatives and their use as H3 receptor ligands” (Cephalon, Inc., priority 2006, dated 2013) can be followed below.

In data set [1] the target is T1, human H3 receptor (Homo sapiens, UniProt Q9Y5N1).
T1 construct: expressed in transfected cells
As to the kind of experiment: Human H3 radioligand binding ([3H]-N-alpha-methylhistamine, CHO cell membranes, SPA). Particulars: Table B, binding constant as letter class. Summed up:
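Scintillation proximity format: bead-proximal [3H]-N-alpha-methylhistamine (approximately 1 nM final) bound to human H3 receptor in CHO membranes was counted after 4 h at room temperature, light-protected. Buffer was pH 7.4 Tris/MgCl2/BSA; test compounds spanned 0.01 nM-30 μM; 10 μM clobenpropit set non-specific binding.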

The target of data set [2] is T2, rat histamine H3 receptor (Rattus norvegicus, UniProt Q9QYN8).
T2 construct: encoding the entire 445-amino-acid rat histamine H3 receptor; expressed in transfected cells
T2 sequence (Q9QYN8 whole entry): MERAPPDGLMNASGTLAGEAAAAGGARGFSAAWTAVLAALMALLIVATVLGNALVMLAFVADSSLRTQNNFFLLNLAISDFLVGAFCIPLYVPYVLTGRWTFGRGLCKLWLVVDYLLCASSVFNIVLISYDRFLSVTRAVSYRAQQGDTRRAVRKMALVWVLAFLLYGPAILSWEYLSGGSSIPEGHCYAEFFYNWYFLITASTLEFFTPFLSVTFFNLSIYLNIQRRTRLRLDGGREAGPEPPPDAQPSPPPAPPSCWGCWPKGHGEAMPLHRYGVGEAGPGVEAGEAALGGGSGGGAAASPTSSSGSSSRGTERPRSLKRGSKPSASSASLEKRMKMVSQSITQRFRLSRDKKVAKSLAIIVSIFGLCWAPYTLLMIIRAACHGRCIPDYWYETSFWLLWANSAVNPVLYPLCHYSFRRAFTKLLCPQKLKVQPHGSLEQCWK
Briefly: Rat H3 radioligand binding ([3H]-N-alpha-methylhistamine, CHO-A3 cell membranes, SPA). To be noted: Table B, binding constant as letter class; read-out: rat H3 Ki. In outline: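 Scintillation proximity displacement of about 1 nM [3H]-N-alpha-methylhistamine, test compound 0.01 nM-30 μM, 4 h, room temperature, in the dark. Receptor source: rat H3 stably transfected into CHO-A3 cells, 10 μg membrane protein, Tris-HCl pH 7.4/MgCl2/BSA buffer. Nonspecific binding defined by 10 μM clobenpropit.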

T1 sequence (Q9Y5N1 whole entry): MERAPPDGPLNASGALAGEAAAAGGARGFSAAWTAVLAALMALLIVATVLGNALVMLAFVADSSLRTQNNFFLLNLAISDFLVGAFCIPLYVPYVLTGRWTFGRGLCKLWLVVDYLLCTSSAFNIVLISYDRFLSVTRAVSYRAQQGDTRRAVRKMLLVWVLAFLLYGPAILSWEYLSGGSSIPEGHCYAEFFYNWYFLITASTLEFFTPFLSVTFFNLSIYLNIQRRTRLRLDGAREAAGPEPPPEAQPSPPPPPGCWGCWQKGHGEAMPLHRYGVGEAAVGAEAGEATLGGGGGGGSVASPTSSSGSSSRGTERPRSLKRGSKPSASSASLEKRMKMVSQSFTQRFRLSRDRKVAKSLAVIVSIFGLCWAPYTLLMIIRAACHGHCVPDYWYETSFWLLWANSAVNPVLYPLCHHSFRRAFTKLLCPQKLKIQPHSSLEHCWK

In general, melting point refers to the temperature of the solid-liquid transition. What is called Ki is the equilibrium dissociation constant of an inhibitor or competing ligand from its target. With `C[C@@H](COc1ccc(-c2cn[nH]c(=O)c2)cc1)CN1CCCCC1` [Example 228, 5-[4-((R)-2-Methyl-3-piperidin-1-yl-propoxy)-phenyl]-2H-pyridazin-3-one], the melting point lay within 160 to 163 °C. The same molecule registered a Ki in data set [1] of 0.1 to 100 nM. Also, the Ki in data set [2] was 101 to 500 nM.

Molecule `C[C@@H]1CCCN1CCCOc1c(Br)cc(-c2cn[nH]c(=O)c2)cc1Br` [Example 229] had a melting point of 175 to 180 °C. The same molecule displayed a Ki in data set [1] of 0.1 to 100 nM. The Ki in data set [2] was 501 to 1000 nM.

Regarding `Cc1cc(OCCCN2CCCCC2)ccc1-c1cn[nH]c(=O)c1` [Example 233, 5-[2-Methyl-4-(3-piperidin-1-yl-propoxy)-phenyl]-2H-pyridazin-3-one], the melting point lay in the range of 112 to 113 °C. In addition, in data set [1], the inhibition constant Ki was 0.1 to 100 nM. Also, the Ki in data set [2] lay within 101 to 500 nM.

In turn, `O=c1ccc(-c2ccc(OCCCN3CCCC3)cc2)n[nH]1` [Example 240, 6-[4-(3-Pyrrolidin-1-yl-propoxy)-phenyl]-2H-pyridazin-3-one] came in with a melting point of 154 to 157 °C. The molecule also came in with an inhibition constant Ki in data set [1] of 0.1 to 100 nM. Also, the inhibitory constant (Ki) in data set [2] lay in the range of 0.1 to 100 nM.

`CN(CCCOc1ccc(-c2ccc(=O)[nH]n2)cc1)C1CCC1` [Example 241, 6-{4-[3-(Cyclobutyl-methyl-amino)-propoxy]-phenyl}-2H-pyridazin-3-one] showed a melting point of less than 50 °C. This molecule displayed an inhibitory constant (Ki) in data set [1] of 101 to 500 nM. In addition, the Ki in data set [2] lay within 101 to 500 nM.

`CN(CCCOc1ccc(-c2ccc(=O)[nH]n2)cc1)C1CCCC1` [Example 242, 6-{4-[3-(Cyclopentyl-methyl-amino)-propoxy]-phenyl}-2H-pyridazin-3-one] showed a melting point of 95 to 98 °C. In data set [1], this molecule displayed an inhibition constant (Ki) of 0.1 to 100 nM. In addition, the Ki in data set [2] lay within 101 to 500 nM.

`O=C1NN=C(c2ccc(OC3CCN(C4CCC4)CC3)cc2)C2CC12` (stereo not drawn) [Example 244, 5-[4-(1-Cyclobutyl-piperidin-4-yloxy)-phenyl]-3,4-diaza-bicyclo[4.1.0]hept-4-en-2-one] gave a melting point of 79 to 81 °C. For the same molecule, in data set [1], the inhibitory constant (Ki) was in the range of 0.1 to 100 nM. For the same molecule, in data set [2], the Ki lay in the range of 0.1 to 100 nM.

`C[C@H](COc1ccc(C2=NNC(=O)C3CC23)cc1)CN1CCC[C@H]1C` (stereo partly drawn) [Example 245] had a melting point of 112 to 115 °C. The inhibitory constant (Ki) in data set [1] is 0.1 to 100 nM. Also, the Ki in data set [2] lay in the range of 0.1 to 100 nM.

Molecule `O=c1ccc(-c2ccc(OCC(O)CN3CCCCC3)cc2)n[nH]1` (stereo not drawn) [Example 255, 6-[4-(2-Hydroxy-3-piperidin-1-yl-propoxy)-phenyl]-2H-pyridazin-3-one] returned a melting point of 185 °C. In addition, in data set [1], the Ki lay in the range of 101 to 500 nM. Besides, in data set [2], the Ki lay within 101 to 500 nM.

As for `C[C@@H]1CCCN1CC(O)COc1ccc(-c2ccc(=O)[nH]n2)cc1` (stereo partly drawn) [Example 256, 6-{4-[2-Hydroxy-3-((R)-2-methyl-pyrrolidin-1-yl)-propoxy]-phenyl}-2H-pyridazin-3-one], the melting point is 153 °C. In data set [1], this molecule had an inhibition constant (Ki) of 0.1 to 100 nM. Further, the Ki in data set [2] fell in the range of 101 to 500 nM.

Take `C[C@@H]1CCCN1C[C@H](O)COc1ccc(-c2ccc(=O)[nH]n2)cc1` [Example 257, 6-{4-[(S)-2-Hydroxy-3-((R)-2-methyl-pyrrolidin-1-yl)-propoxy]-phenyl}-2H-pyridazin-3-one]: the melting point was determined as 156 °C. In data set [1], the Ki is 0.1 to 100 nM. Besides, in data set [2], the inhibition constant Ki lay within 0.1 to 100 nM.

In the case of `C[C@@H]1CCCN1C[C@@H](O)COc1ccc(-c2ccc(=O)[nH]n2)cc1` [Example 258, 6-{4-[(R)-2-Hydroxy-3-((R)-2-methyl-pyrrolidin-1-yl)-propoxy]-phenyl}-2H-pyridazin-3-one], the melting point stood at 147 °C. Moreover, in data set [1], the Ki is 0.1 to 100 nM. Further, the inhibitory constant (Ki) in data set [2] lay in the range of 0.1 to 100 nM.

In the case of `O=c1ccc(-c2ccc(OC[C@H](O)CN3CCCCC3)cc2)n[nH]1` [Example 259, 6-[4-((R)-2-Hydroxy-3-piperidin-1-yl-propoxy)-phenyl]-2H-pyridazin-3-one], the melting point is 167 °C. Besides, the inhibition constant (Ki) in data set [1] is 101 to 500 nM. In data set [2], the Ki lay within 101 to 500 nM.
